From patent US8501816B2, “Antitussive compositions comprising memantine” (Cerecor, Inc., priority 2010, dated 2013)
Entries after “also recorded” stand apart in the source; their conditions may differ. Marks after values point to notes of the source that are not given here.

Assays:
[1] = cited from earlier work
[2] = Pharmacokinetics of memantine after oral or buccal dosing in male beagle dogs (Example 2); assay type: in vivo, beagle dog; set-up: Cmax/Dose: unit not given beside the values; conditions: for AUC(0-inf) / AUC(0-t) / Cmax / Tmax / half-life: male, beagle, dog, plasma, 0.4 mg/kg
[3] = as above; assay type: in vivo, beagle dog; set-up: Cmax/Dose: unit not given beside the values
Procedure: The pharmacokinetics of memantine were evaluated after buccal administration in male beagle dogs. Memantine was formulated in water, 3.3 mg/mL sodium hydroxide in water, or 7.5 mg/mL sodium carbonate in water. All dogs received a 0.4 mg/kg dose of memantine. Plasma levels of memantine were determined by LC-MS/MS. Pharmacokinetic parameters were determined for the memantine plasma data.
For dosing, dogs were anesthetized with an IV injection of ketamine/diazepam, and maintained by isoflurane intubation during the buccal administration. The dosing solution was pipetted into a circular cylinder to concentrate the dosing solution on one area of the mucosa. At just prior to the 15 minute sample time point, the oral cavity was rinsed with 5 mL of water and dried with gauze Immediately after the rinse, the 15 minute sample was collected.

NMDA receptors = conditions: cited from earlier work
[4] = tested on: recombinant human histamine receptors; conditions: in vitro; cited from earlier work
[5] = Pharmacokinetics of memantine with sodium hydroxide, menthol and NH4Cl in male beagle dogs (Example 3); assay type: in vivo, beagle dog; conditions: MMT 0.4 mg/kg; for Cmax/Dose: Route Oral; for AUC(0-inf) / AUC(0-t) / Cmax / Tmax / half-life: male, beagle, dog, plasma, po, 0.4 mg/kg
[6] = treated for dementia, recent review; cited from earlier work
H3-receptor = conditions: hypothalamus, after 5 mg/kg twice daily for 5 days; cited from earlier work
[7] = tested on: histamine neuron activity; conditions: cited from earlier work
[8] = cited from earlier work; remark: listed apart in the source
Caco-2 cells = assay: Memantine in vitro intestinal permeability (Caco-2 cells); assay type: in vitro ADME; conditions: pH 5.0 to 10.5
porcine buccal mucosa = assay: Memantine ex vivo buccal permeability; assay type: in vitro ADME
native NMDA receptors = conditions: in vitro; cited from earlier work
[9] = tested on: citric acid induced cough; assay: Citric acid induced cough in conscious guinea pigs; conditions: for ≧15 Cumulative coughs/total number of guinea pigs: 1 hour pre-citric acid challenge; for Cumulative coughs evoked by citric acid, 0.1M Citric Acid / Cumulative coughs evoked by citric acid, 0.3M Citric Acid: MMT 10 mg/kg intraperitoneal
Procedure: Male Hartley guinea pigs (200-700 g) were studied and all experiments were first approved by the institutional Animal Care and Use Committee.
Animals were placed in a transparent chamber (Buxco Research Systems, Wilmington, N.C.) with a continuous flow of air and exposed to increasing concentrations of citric acid (0.01 M-0.3 M) is delivered by an ultrasonic nebulizer generating aerosol particles of 3-6 μm diameter. Coughs were counted during a 5 minute nebulization period and over the subsequent 5 minutes with the assistance of sound and pressure monitoring from the chamber. Respiratory rate and tidal volume were monitored throughout via a calibrated pressure transducer (Emka Technologies, Falls Church, Va.).
Each of these drugs was administered orally in half-log increments (e.g. 3 mg/kg, 10 mg/kg, 30 mg/kg) in an unpaired experimental design (each animal received only 1 dose of drug). The drugs were administered 60 minutes prior to citric acid challenge, which consisted of 5 minute challenges with aerosols of increasing concentrations of citric acid (0.01-0.3M), with 5 minute intervals in between escalating doses of the tussive stimulus.

[10] = Sedation and side effects observed in the cough studies
[11] = MMT 0.4 mg/kg Buccal + 3.3 mg/ml NaOH
[12] = MMT 0.4 mg/kg Buccal + 7.5 mg/ml Na2CO3
[13] = MMT 0.4 mg/kg Buccal, Control (water)
[14] = po, MMT 0.4 mg/kg Oral + 15 mg/kg NH4Cl
[15] = po, MMT 0.4 mg/kg Oral + 25 mg/kg NH4Cl
[16] = po, MMT 0.4 mg/kg Oral + 30 mg/kg NH4Cl
[17] = po, MMT 0.4 mg/kg Oral, ControlAve
[18] = male, beagle, dog, plasma, 0.4 mg/kg, MMT 0.4 mg/kg Buccal + 7.5 mg/ml Na2CO3
[19] = male, beagle, dog, plasma, 0.4 mg/kg, MMT 0.4 mg/kg Buccal, Control (water)
[20] = 3.3 mg/ml sodium hydroxide + 5 mg/ml menthol
[21] = 3.3 mg/ml sodium hydroxide + 5 mg/ml menthol + 20 mg/kg NH4Cl
[22] = 3.3 mg/ml sodium hydroxide + 5 mg/ml menthol + 30 mg/kg NH4Cl

CC12CC3CC(C)(C1)CC(N)(C3)C2 [Memantine, 3,5-dimethyltricyclo[3.3.1.1^3,7]decan-1-amine]
solubility ([1]; all physiological pHs): > 30 mg/mL | Biopharmaceutics Classification System (BCS) class ([1]; highly soluble/highly permeable): class I | Cmax/Dose ([2]; MMT 0.4 mg/kg Oral + 15 mg/kg NH4Cl): 6.8 | Cmax/Dose ([2]; MMT 0.4 mg/kg Oral + 25 mg/kg NH4Cl): 5.2 | Cmax/Dose ([2]; MMT 0.4 mg/kg Oral + 30 mg/kg NH4Cl): 5.4 | Cmax/Dose ([2]; MMT 0.4 mg/kg Oral, ControlAve): 5.2 | AUC(0-inf) [2, 11]: 112 ng·h/mL | AUC(0-t) [2, 11]: 108 ng·h/mL | Cmax [2, 11]: 52 ng/mL | Tmax [2, 11]: 0.25 h | half-life [2, 11]: 5.2 h | AUC(0-t) [2, 12]: 179 ng·h/mL | Tmax [2, 12]: 0.45 h | half-life [2, 12]: 4.5 h | Cmax [2, 13]: 23 ng/mL | Tmax [2, 13]: 0.75 h | half-life [2, 13]: 5.2 h | AUC(0-inf) [2, 14]: 256 ng·h/mL | AUC(0-t) [2, 14]: 233 ng·h/mL | Cmax [2, 14]: 25 ng/mL | Tmax [2, 14]: 2 h | half-life [2, 14]: 6.7 h | AUC(0-inf) [2, 15]: 179 ng·h/mL | AUC(0-t) [2, 15]: 169 ng·h/mL | Cmax [2, 15]: 20 ng/mL | Tmax [2, 15]: 1.5 h | half-life [2, 15]: 5.5 h | AUC(0-inf) [2, 16]: 168 ng·h/mL | AUC(0-t) [2, 16]: 163 ng·h/mL | Cmax [2, 16]: 25 ng/mL | Tmax [2, 16]: 1.1 h | half-life [2, 16]: 4.8 h | AUC(0-inf) [2, 17]: 210 ng·h/mL | AUC(0-t) [2, 17]: 190 ng·h/mL | Cmax [2, 17]: 22 ng/mL | Tmax [2, 17]: 1.7 h | half-life [2, 17]: 6.5 h | Cmax/Dose [3, 11]: 12.9 | Cmax/Dose [3, 13]: 6.7 | AUC(0-inf) [3, 18]: 184 ng·h/mL | Cmax [3, 18]: 54 ng/mL | AUC(0-inf) [3, 19]: 125 ng·h/mL | AUC(0-t) [3, 19]: 119 ng·h/mL | ED50 of inhibition of ex vivo [3H]MK-801 binding (NMDA receptors): 1.8 ± 1.3 mg/kg | effect at receptors [4]: no effect | Cmax/Dose [5, 20]: 18.16 | Cmax/Dose [5, 21]: 26.03 | Cmax/Dose [5, 22]: 9.18 | Cmax/Dose ([5]; Control): 7.91 | AUC(0-inf) [5, 20]: 126 ng·h/mL | AUC(0-t) [5, 20]: 113 ng·h/mL | Cmax [5, 20]: 77 ng/mL | Tmax [5, 20]: 0.2 h | half-life [5, 20]: 5.05 h | AUC(0-inf) [5, 21]: 143 ng·h/mL | AUC(0-t) [5, 21]: 134 ng·h/mL | Cmax [5, 21]: 126 ng/mL | Tmax [5, 21]: 0.15 h | half-life [5, 21]: 4.6 h | AUC(0-inf) [5, 22]: 125 ng·h/mL | AUC(0-t) [5, 22]: 103 ng·h/mL | Cmax [5, 22]: 43 ng/mL | Tmax [5, 22]: 0.25 h | half-life [5, 22]: 4.33 h | AUC(0-inf) ([5]; Control): 132 ng·h/mL | AUC(0-t) ([5]; Control): 120 ng·h/mL | Cmax ([5]; Control): 34.5 ng/mL | Tmax ([5]; Control): 0.75 h | half-life ([5]; Control): 7.18 h | adverse effects reported, share of those treated [6]: < 10% | density of H3-receptor binding sites increased by (H3-receptor): 141±24% | ED50 of t-MeHA increase ([7]; acute administration): 0.3 ± 0.1 mg/kg | increase of tele-methylhistamine (t-MeHA) levels in the brain ([7]; acute administration): 60% | t-MeHA levels enhanced by ([7]; two days after 5 mg/kg twice daily for 5 days): 50±7% | plasma memantine concentrations at steady state ([8]; conventional memantine dosage forms): 70 to 150 ng/mL | Total renal clearance ([8]; healthy volunteers): approximately 170 mL/min/1.70 m^2 | bound to plasma proteins ([8]; in vivo): about 45% | mean volume of distribution ([8]; in vivo): about 10 L/kg | bioavailability ([8]; oral, conventional memantine): > 100% | permeability in Caco-2 cells versus pH (Caco-2 cells): gradually increases with an increase in pH | increase in permeability of memantine (porcine buccal mucosa; increase in pH from 5.5 to 9.0): over 100 fold | increase in permeability of memantine (porcine buccal mucosa; increase in pH from 8.0 to 9.0): about 3.8 fold | potency of antagonism (native NMDA receptors): micromolar potency | ≧15 Cumulative coughs/total number of guinea pigs ([9]; 0.01 mg/kg po): 2/5 | ≧15 Cumulative coughs/total number of guinea pigs ([9]; 0.1 mg/kg po): 1/5 | Cumulative numbers of cough, median, citric acid 0.01M ([9]; 1 mg/kg intraperitoneally): 0.0 | Cumulative numbers of cough, median, citric acid 0.1M ([9]; 1 mg/kg intraperitoneally): 5.0 | Cumulative numbers of cough, median, citric acid 0.3M ([9]; 1 mg/kg intraperitoneally): 14.0 | ≧15 Cumulative coughs/total number of guinea pigs ([9]; 1 mg/kg po): 2/7 | Cumulative numbers of cough, median, citric acid 0.01M ([9]; 3 mg/kg intraperitoneally): 0.0 | Cumulative numbers of cough, median, citric acid 0.1M ([9]; 3 mg/kg intraperitoneally): 3.0 | Cumulative numbers of cough, median, citric acid 0.3M ([9]; 3 mg/kg intraperitoneally): 24.5 | ≧15 Cumulative coughs/total number of guinea pigs ([9]; 3 mg/kg po): 0/5 | Cumulative numbers of cough, median, citric acid 0.01M ([9]; 10 mg/kg intraperitoneally): 0.0 | Cumulative numbers of cough, median, citric acid 0.1M ([9]; 10 mg/kg intraperitoneally): 0.0 | Cumulative numbers of cough, median, citric acid 0.3M ([9]; 10 mg/kg intraperitoneally): 1.5* | Effect on cumulative number of coughs evoked by citric acid (0.01-0.3M) compared to controls ([9]; 10 mg/kg intraperitoneally): significantly reduced the cumulative number of coughs; also recorded: markedly reduced the number of cumulative coughs | ≧15 Cumulative coughs/total number of guinea pigs ([9]; 10 mg/kg po): 0/7 | Cumulative numbers of cough, median, citric acid 0.01M ([9]; 30 mg/kg intraperitoneally): 0.0 | Cumulative numbers of cough, median, citric acid 0.1M ([9]; 30 mg/kg intraperitoneally): 0.0* | Cumulative numbers of cough, median, citric acid 0.3M ([9]; 30 mg/kg intraperitoneally): 1.5* | Effect on cumulative number of coughs evoked by citric acid (0.01-0.3M) compared to controls ([9]; 30 mg/kg intraperitoneally): significantly reduced the cumulative number of coughs; also recorded: similarly reduced cough responses | ≧15 Cumulative coughs/total number of guinea pigs ([9]; 30 mg/kg po): 0/4 | Effect on cumulative coughs evoked by citric acid over vehicle ([9]; 1 and 3 mg/kg): no significant effect | Cumulative coughs evoked by citric acid, 0.1M Citric Acid ([9]; 0.5 hr pre-challenge): 2 ± 2 | Cumulative coughs evoked by citric acid, 0.3M Citric Acid ([9]; 0.5 hr pre-challenge): 5 ± 3 | Cumulative coughs evoked by citric acid, 0.1M Citric Acid ([9]; 1 hr pre-challenge): 1 ± 1 | Cumulative coughs evoked by citric acid, 0.3M Citric Acid ([9]; 1 hr pre-challenge): 7 ± 3 | Cumulative coughs evoked by citric acid, 0.1M Citric Acid ([9]; 2 hr pre-challenge): 0 ± 0 | Cumulative coughs evoked by citric acid, 0.3M Citric Acid ([9]; 2 hr pre-challenge): 7 ± 4 | Cumulative coughs evoked by citric acid, 0.1M Citric Acid ([9]; 4 hr pre-challenge): 6 ± 5 | Cumulative coughs evoked by citric acid, 0.3M Citric Acid ([9]; 4 hr pre-challenge): 15 ± 6 | Levels of cough, oral compared to parenteral administration ([9]; doses of 1 mg/kg or more (FIG. 8)): substantially reduced levels of cough compared to parenterally administered memantine | time to the first cough during the citric acid challenge ([9]; memantine 10 mg/kg vs vehicle, p=0.007): shorter for vehicle than memantine 10 mg/kg | Effect of single agent on citric acid (0.01-0.3M) induced cough ([9]; oral, 60 minutes prior, memantine 3, guaifenesin 100, diphenhydramine 10, benzonatate 30, ambroxol 100 mg/kg): failed to inhibit cough | Percentage of animals coughing ≧15 times, effect relative to controls ([9]; orally, doses around 0.1-1 mg/kg (FIG. 7)): reduces cough relative to controls | Side effects / sedation ([10]; memantine 10 mg/kg intraperitoneally): No side effects; also recorded: induced no sedation; also recorded: no sedating effects | Side effects ([10]; memantine 30 mg/kg): slight behavioral changes
